According to ChEMBL document CHEMBL3217616, “Modular assembly of cytotoxic acetogenin mimetics by click linkage with nitrogen functionalities” (Medchemcomm, 2011):

Columns and labels:
[1] = system: SW-620; test: Cytotoxicity against human SW620 cells after 48 hrs by CCK-8 assay; type: functional, cell-based; details: SW-620, 48 h
[2] = Cytotoxicity against human MDA-MB-435S cells after 48 hrs by CCK-8 assay; type: functional, cell-based
[3] = system: BT-474; test: Cytotoxicity against human BT474 cells after 48 hrs by CCK-8 assay; type: functional, cell-based; details: BT-474, 48 h
[4] = system: BT-549; test: Cytotoxicity against human BT549 cells after 48 hrs by CCK-8 assay; type: functional, cell-based; details: BT-549, 48 h
[5] = Cytotoxicity against human NB4 cells assessed as growth inhibition at 5 to 25 uM after 48 hrs by CCK-8 assay; type: functional, NB-4
[6] = Cytotoxicity against human NB4 cells after 48 hrs by CCK-8 assay; type: functional, cell-based; details: NB-4, 48 h
[7] = system: K562; test: Cytotoxicity against human K562 cells after 48 hrs by CCK-8 assay; type: functional, cell-based; details: K562, 48 h
[8] = system: Jurkat; test: Cytotoxicity against human Jurkat cells after 48 hrs by CCK-8 assay; type: functional, cell-based
[9] = Cytotoxicity against human NB4 cells assessed as growth inhibition at 0.2 uM after 48 hrs by CCK-8 assay; type: functional; details: NB-4, 48 h
[10] = system: U-937; test: Cytotoxicity against human U937 cells after 48 hrs by CCK-8 assay; type: functional, cell-based; details: U-937, 48 h
[11] = system: SK-BR-3; test: Cytotoxicity against human SK-BR-3 cells after 48 hrs by CCK-8 assay; type: functional, cell-based; details: SK-BR-3, 48 h
[12] = system: MCF7; test: Cytotoxicity against human MCF7 cells after 48 hrs by CCK-8 assay; type: functional, cell-based; details: MCF7, 48 h
[13] = system: Kasumi 1; test: Cytotoxicity against human Kasumi-1 cells after 48 hrs by CCK-8 assay; type: functional, cell-based; details: Kasumi 1, 48 h
[14] = system: HL-60; test: Cytotoxicity against human HL60 cells after 48 hrs by CCK-8 assay; type: functional, cell-based; details: HL-60, 48 h

`CCCCCCCCCC[C@H](O)COCCOC[C@@H](O)CCCCCCCCCCCCC1=C[C@H](C)OC1=O` showed an IC50 [1] greater than 25 µM, an IC50 [2] greater than 25 µM and an IC50 [3] greater than 25 µM. The IC50 [4] was 3.3 µM, the “inhibition (INH)” value [5] was greater than 70% and the IC50 [6] was 0.7 µM. It also gave an IC50 [7] of 2.7 µM, an IC50 [8] of 2.6 µM and an inhibition at 0.2 µM [9] of 48.6%. It also gave an IC50 [10] of 1.2 µM, an IC50 [11] of 22.1 µM and an IC50 [12] greater than 25 µM. It also gave an IC50 [13] of 1.1 µM and an IC50 [14] greater than 25 µM.
`CCCCCCCCCC[C@H](O)COCCOC[C@@H](O)Cc1cn(CCCCCCCCCC2=C[C@H](C)OC2=O)nn1` gave an IC50 [1] greater than 25 µM, an IC50 [2] greater than 25 µM and an IC50 [3] greater than 25 µM. For the same molecule, the IC50 [4] was greater than 25 µM, the IC50 [6] was 3.2 µM and the IC50 [7] was 8.5 µM. It also gave an IC50 [8] greater than 25 µM, an IC50 [10] greater than 25 µM and an IC50 [11] greater than 25 µM. For the same molecule, the IC50 [12] was greater than 25 µM, the IC50 [13] was 17.8 µM and the IC50 [14] was greater than 25 µM.
Molecule `CCCCCCCCCC[C@H](O)COCCOC[C@@H](O)CC(=O)NCCCCCCCCCC1=C[C@H](C)OC1=O` has an IC50 [1] greater than 25 µM, an IC50 [2] greater than 25 µM and an IC50 [3] greater than 25 µM. For the same molecule, the IC50 [4] was greater than 25 µM, the IC50 [6] was 4.5 µM and the IC50 [7] was 15 µM. The IC50 [8] was 14 µM, the IC50 [10] was 5.2 µM and the IC50 [11] was greater than 25 µM. For the same molecule, the IC50 [12] was greater than 25 µM, the IC50 [13] was 16.7 µM and the IC50 [14] was 7.4 µM.
Work on `CCCCCCCCCC[C@H](O)COCCOC[C@@H](O)CCC1CCN(CCCCCCCCCC2=C[C@H](C)OC2=O)CC1` yielded an IC50 [1] of 8.1 µM, an IC50 [2] of 5 µM and an IC50 [3] greater than 25 µM. For the same molecule, the IC50 [4] was 2.2 µM, the “inhibition (INH)” value [5] was greater than 70% and the IC50 [6] was 1.9 µM. It also gave an IC50 [7] of 3.1 µM, an IC50 [8] of 1.2 µM and an inhibition at 0.2 µM [9] of 6.2%. It also gave an IC50 [10] of 4.4 µM, an IC50 [11] of 8 µM and an IC50 [12] greater than 25 µM. The IC50 [13] was 3.9 µM and the IC50 [14] was greater than 25 µM.
